Assay results published in article PMC11801715, “Activating PKC-ε induces HIV expression with improved tolerability” (PLOS Pathogens, 2025).
“And” between values parts separate entries of the source, which are not always exact repeats. Equal values may be shown once. Read-outs that look alike come from different tables or passages of the source.

Tests used:
[1] = tested on: EGR1 and CD69 mRNA in whole blood; experiment: EGR1 and CD69 mRNA levels in rat blood (QuantiGene); type: in vivo
Experimental: EGR1 and CD69 mRNA expression levels were measured in whole blood, processed using Affymetrix QuantiGene Sample Processing Kit (Thermo Fisher Scientific, catalog QS0111). Quantigene multiplex analysis was performed on 1:3 diluted blood using probes specific for rat EGR1 (Thermo Fisher Scientific, catalog nm_012551) and CD69 (catalog nm_134327), as per the kit’s instructions (Thermo Fisher Scientific, catalog QP-1014) and normalized to PPIB (catalog nm_022536) and β-actin (catalog nm_031144).

Sprague Dawley rats = experiment: In vivo rat study: tolerability, clinical pathology, histopathology
Experimental: Wild-type male Sprague Dawley (Hsd: Sprague Dawley SD) rats (8–15 weeks old) were sourced from the Covance stock colony for conduct of in vivo studies at Covance Laboratories Inc. (Madison, Wisconsin, USA). Rats were administered a single dose of vehicle control (n = 3), or 0.1, 0.3, 1, or 3 mg/kg C-232A (n = 6), or 10 mg/kg C-233 by intravenous infusion over 30 minutes. Blood samples were collected through 24 hours postdose. Samples for PK measurement of C-232A concentration were processed to plasma and shipped to Gilead Sciences (Foster City, California, USA). Samples were analyzed at Covance Laboratories for hematology and clinical chemistry panels. At unscheduled necropsy (3 mg/kg C-232A), tissues were preserved in 10% neutral-buffered formalin, embedded in paraffin, mounted on slides, and stained with hematoxylin and eosin. Tissues were then evaluated independently (Experimental Pathology Laboratories, Inc).

PKC-θ = PKC-θ (Homo sapiens, UniProt Q04759); experiment: PKC isoform translocation in A549-tGFP cells; type: cell-based; design: host or cells: A549; settings: for EC50: A549-tGFP cells, 60 minutes; for ε selectivity, PKC-θ: EC50 of PKC-θ divided by EC50 of PKC-ε
Experimental: (§1) A description of this effort is reported elsewhere.
(§2) Cellular translocation of PKC isoforms upon activation was determined in 8 A549 cell lines, each expressing a single PKC isoform fused to tGFP (PhenoVista Biosciences). Cells were plated in 384-well plates (80 μL/well) at 10^5 cells/mL in RPMI with 10% FBS and rested overnight. PKC agonist(s) were serially diluted at 1:3 steps in DMSO and added to the cells. After 60 minutes in an incubator at 37 °C, 5% CO2, cells were stained with Hoechst-33342 and fixed with 2% paraformaldehyde for 30 minutes at 4 °C. Cells were then stained with wheat germ agglutinin conjugated to AlexaFluor647 (WGA-647) for 10 minutes at 4 °C, washed to remove excess dye and imaged with Cellomics Array Scan (Thermo Fisher) at room temperature (RT). Images were analyzed using Cellomics automated image analysis algorithm. Plasma membrane translocation was quantified using the ratio between the average fluorescence in the areas at the cell edge defined by WGA-647 and the cytoplasm region.

PKC-η = PKC-η (Homo sapiens, UniProt P24723); experiment: PKC isoform translocation in A549-tGFP cells; type: cell-based; design: host or cells: A549; settings: for EC50: A549-tGFP cells, 60 minutes; for ε selectivity, PKC-η: EC50 of PKC-η divided by EC50 of PKC-ε
Experimental: as §1, §2

PKC-δ = PKC-δ (Homo sapiens, UniProt Q05655); experiment: PKC isoform translocation in A549-tGFP cells; type: cell-based; design: host or cells: A549; settings: for EC50: A549-tGFP cells, 60 minutes, read-out: EC50 for PKC-δ translocation; for ε selectivity, PKC-δ: EC50 of PKC-δ divided by EC50 of PKC-ε
Experimental: as §1, §2

PKC-ε = molecular target: T1, PKC-ε (Homo sapiens, UniProt Q02156); experiment: PKC isoform translocation in A549-tGFP cells; type: cell-based; design: host or cells: A549; settings: for EC50: A549-tGFP cells, 60 minutes; for ε selectivity, PKC-ε: EC50 of PKC-ε divided by EC50 of PKC-ε
T1 sequence (Q02156 1-737): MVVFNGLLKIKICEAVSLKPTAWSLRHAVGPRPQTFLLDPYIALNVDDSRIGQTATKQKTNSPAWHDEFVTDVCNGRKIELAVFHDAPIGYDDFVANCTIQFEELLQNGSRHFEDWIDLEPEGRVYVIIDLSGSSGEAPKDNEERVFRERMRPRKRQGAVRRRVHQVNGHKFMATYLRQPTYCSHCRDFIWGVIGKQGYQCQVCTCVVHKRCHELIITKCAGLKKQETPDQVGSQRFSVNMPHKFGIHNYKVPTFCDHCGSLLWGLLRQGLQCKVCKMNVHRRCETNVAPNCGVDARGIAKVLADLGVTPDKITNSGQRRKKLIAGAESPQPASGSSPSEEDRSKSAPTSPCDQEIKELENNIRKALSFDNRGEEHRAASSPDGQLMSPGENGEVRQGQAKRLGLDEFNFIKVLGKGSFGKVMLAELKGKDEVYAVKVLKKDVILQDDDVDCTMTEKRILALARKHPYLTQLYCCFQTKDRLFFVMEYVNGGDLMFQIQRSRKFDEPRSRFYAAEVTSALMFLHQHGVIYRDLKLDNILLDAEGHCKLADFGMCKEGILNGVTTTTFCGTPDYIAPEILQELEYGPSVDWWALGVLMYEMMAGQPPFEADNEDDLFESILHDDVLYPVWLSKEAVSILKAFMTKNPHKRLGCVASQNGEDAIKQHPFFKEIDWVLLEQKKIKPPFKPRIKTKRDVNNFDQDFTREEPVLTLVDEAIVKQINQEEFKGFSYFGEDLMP
Experimental: Using these findings we embarked on new designs for DAG-lactones with additional substituents from the ester moiety in combination with a few olefin substituents. A description of this effort is reported elsewhere.
as §2

platelet-rich plasma = experiment: Platelet aggregation assay (light transmittance aggregometry); type: cell-based, human
Experimental: Given that C-232A induced DIC in rats and monkeys, we tested whether C-232A could directly induce platelet activation and downstream aggregation. […] Adenosine diphosphate, a known platelet agonist, was used as a positive control (S7A Fig).
Aggregation of platelets was assessed using light transmittance aggregometry using standard methods.
(A) Assay principle for platelet aggregation assay.

[2] = tested on: latent HIV in total CD4+ T cells; experiment: microbe, parasite or virus in culture; type: cell-based, HIV-1; settings: for EC50: Human immunodeficiency virus 1, CD4+ T
Experimental: Peripheral blood mononuclear cells and CD4^+ T cells used for evaluating PKC agonist and inhibitor molecules were isolated from leukopaks of selected participants as described previously. Isolated CD4^+ T cells (5×10^6 cells/well) were added to 24-well tissue culture plates in 2.5 mL of RPMI medium containing 100 nM each of elvitegravir and efavirenz. Cells were stimulated with DMSO (vehicle control) or the indicated concentrations of PKC agonist molecules. Cells were pretreated with PKC isoform inhibitors (Selleck Chemicals) for 1 hour before addition of PKC agonist at indicated concentrations and maintained at 37 °C, 5% CO2 for 3 days. Cell supernatants from each well were analyzed using the Cobas […] system for quantification of HIV-1 RNA using the HIV-1 test v2.0 kit (Roche Diagnostics).

PKC-η, sequence (P24723 whole entry, canonical isoform): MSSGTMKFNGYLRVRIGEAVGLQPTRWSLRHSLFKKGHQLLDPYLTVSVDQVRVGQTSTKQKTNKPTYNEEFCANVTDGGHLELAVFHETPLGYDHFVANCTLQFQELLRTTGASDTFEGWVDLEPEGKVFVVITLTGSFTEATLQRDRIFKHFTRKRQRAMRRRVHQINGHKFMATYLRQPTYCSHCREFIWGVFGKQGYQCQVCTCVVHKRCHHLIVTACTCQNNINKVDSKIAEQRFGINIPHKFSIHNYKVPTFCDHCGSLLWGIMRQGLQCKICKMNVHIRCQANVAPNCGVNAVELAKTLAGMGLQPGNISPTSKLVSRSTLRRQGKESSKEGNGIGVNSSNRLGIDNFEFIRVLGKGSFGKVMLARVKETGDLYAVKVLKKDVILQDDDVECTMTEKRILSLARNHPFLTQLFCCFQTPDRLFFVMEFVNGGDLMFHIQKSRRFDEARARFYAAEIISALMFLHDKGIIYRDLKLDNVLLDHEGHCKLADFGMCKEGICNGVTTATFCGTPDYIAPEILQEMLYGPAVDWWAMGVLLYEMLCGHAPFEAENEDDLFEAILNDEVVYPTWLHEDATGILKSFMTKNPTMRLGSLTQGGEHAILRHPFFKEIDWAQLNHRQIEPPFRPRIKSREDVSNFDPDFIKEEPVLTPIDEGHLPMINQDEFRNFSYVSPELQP
PKC-δ, sequence (Q05655 whole entry, canonical isoform): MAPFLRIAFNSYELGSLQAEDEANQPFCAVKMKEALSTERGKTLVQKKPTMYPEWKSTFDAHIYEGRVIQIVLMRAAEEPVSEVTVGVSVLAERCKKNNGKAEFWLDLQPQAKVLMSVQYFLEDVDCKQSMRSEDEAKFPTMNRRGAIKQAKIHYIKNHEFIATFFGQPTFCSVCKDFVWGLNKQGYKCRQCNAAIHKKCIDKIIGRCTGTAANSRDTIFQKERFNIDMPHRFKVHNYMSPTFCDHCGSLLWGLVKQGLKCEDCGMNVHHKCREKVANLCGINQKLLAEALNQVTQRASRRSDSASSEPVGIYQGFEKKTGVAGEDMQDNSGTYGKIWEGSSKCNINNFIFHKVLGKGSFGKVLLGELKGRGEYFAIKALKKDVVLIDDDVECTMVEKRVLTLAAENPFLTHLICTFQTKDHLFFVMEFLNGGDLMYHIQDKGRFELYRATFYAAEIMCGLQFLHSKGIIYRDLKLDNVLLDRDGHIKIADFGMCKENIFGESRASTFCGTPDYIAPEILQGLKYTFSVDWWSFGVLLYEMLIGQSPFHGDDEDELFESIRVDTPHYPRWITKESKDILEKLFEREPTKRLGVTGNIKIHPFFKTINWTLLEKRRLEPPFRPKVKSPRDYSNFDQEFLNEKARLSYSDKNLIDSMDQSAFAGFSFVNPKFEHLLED
PKC-θ, sequence (Q04759 whole entry, canonical isoform): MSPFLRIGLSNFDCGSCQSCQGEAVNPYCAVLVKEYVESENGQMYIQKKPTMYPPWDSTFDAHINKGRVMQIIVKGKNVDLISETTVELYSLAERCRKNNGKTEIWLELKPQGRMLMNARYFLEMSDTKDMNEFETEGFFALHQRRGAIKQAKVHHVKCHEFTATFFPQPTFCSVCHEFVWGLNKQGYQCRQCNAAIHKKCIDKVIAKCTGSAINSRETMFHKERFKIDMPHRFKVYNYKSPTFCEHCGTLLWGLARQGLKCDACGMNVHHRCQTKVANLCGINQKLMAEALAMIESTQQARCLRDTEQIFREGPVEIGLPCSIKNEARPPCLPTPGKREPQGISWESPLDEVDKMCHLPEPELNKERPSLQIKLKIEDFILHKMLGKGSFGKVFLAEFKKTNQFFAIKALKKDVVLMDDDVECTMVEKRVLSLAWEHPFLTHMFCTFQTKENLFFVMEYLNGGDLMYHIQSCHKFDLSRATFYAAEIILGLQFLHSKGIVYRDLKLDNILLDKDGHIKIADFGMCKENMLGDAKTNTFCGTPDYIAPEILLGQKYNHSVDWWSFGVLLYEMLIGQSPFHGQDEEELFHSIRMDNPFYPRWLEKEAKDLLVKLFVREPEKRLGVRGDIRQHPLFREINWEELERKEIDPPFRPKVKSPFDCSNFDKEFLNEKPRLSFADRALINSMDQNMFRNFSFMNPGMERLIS

For `Cc1ccc(C#Cc2ccc3oc(CC(C)(C)C(=O)OCC4(CO)CC(=CCC(CC(C)C)CC(C)C)C(=O)O4)cc3c2)cc1` (centres unmarked) [C-232A], the “EGR1 and CD69 transcription” value ([1]; 0.1-3 mg/kg) was “dose-dependent increases in EGR1 and CD69 transcription”, the “rats euthanized due to severe clinical signs” value (Sprague Dawley rats; 1 mg/kg, single IV infusion) was 1 of the 6 and 1 of 6 and the histopathology (Sprague Dawley rats; 3 mg/kg) was “thrombi associated with congestion and hemorrhage in the lung and brain”. For the same molecule, the “outcome (moribund condition)” value (Sprague Dawley rats; 3 mg/kg, single IV infusion, n = 6) was “euthanized within 6 hours postdose”, the tolerability (Sprague Dawley rats; 0.1 and 0.3 mg/kg, single IV infusion, 6 rats) was “well tolerated” and the circulating platelet counts (Sprague Dawley rats; higher doses) was < 100,000 platelets/µL. The mean platelet volume (Sprague Dawley rats; higher doses) was > 15 fL, the EC50 (PKC-θ) was 176 nM and 180 nM and the “ε selectivity, PKC-θ” value (PKC-θ) was 3. The EC50 (PKC-η) was 100 nM, the “ε selectivity, PKC-η” value (PKC-η) was 2 and the EC50 (PKC-δ) was 714 nM and 710 nM. The “ε selectivity, PKC-δ” value (PKC-δ) was 12, the EC50 (PKC-ε) was 58 nM and the “ε selectivity, PKC-ε” value (PKC-ε) was 1. The “relative potency for platelet aggregation” value (platelet-rich plasma) was “less potent than prostratin”, the platelet aggregation (platelet-rich plasma; dilution series, 20 minutes) was “stimulated platelet aggregation” and the EC50 ([2]; read-out: EC50, activation of HIV expression) was 500 nM.

For `Cc1ccc(C#Cc2ccc(C(=O)OCC3(CO)Cc4c(-c5ccccc5)ccnc4O3)cc2)cc1` (centres unmarked) [C-233], the “EGR1 and CD69 mRNA induction versus C-232A (1 mg/kg)” value ([1]; 10 mg/kg) was “higher induction of EGR1 and CD69 mRNA levels”, the “platelets and mean platelet volume” value (Sprague Dawley rats; 10 mg/kg) was “without any significant depletion of platelets or increased mean platelet volume” and the adverse events (Sprague Dawley rats; 10 mg/kg, single IV infusion) was “no adverse events were observed”. The EC50 (PKC-θ) was 1500 nM, the “ε selectivity, PKC-θ” value (PKC-θ) was 6 and the EC50 (PKC-η) was 1100 nM. For the same molecule, the “ε selectivity, PKC-η” value (PKC-η) was 5, the EC50 (PKC-δ) was 47000 nM and the “ε selectivity, PKC-δ” value (PKC-δ) was 196. For the same molecule, the “more potent for PKC-ε translocation compared with PKC-η and PKC-θ” value (PKC-ε; A549-PKC-tGFP reporter cells) was 5- to 6 fold, the “more potent for PKC-ε translocation than PKC-δ” value (PKC-ε; A549-PKC-tGFP reporter cells) was ~200 fold and the EC50 (PKC-ε) was 240 nM. The “ε selectivity, PKC-ε” value (PKC-ε) was 1, the “relative potency for platelet aggregation” value (platelet-rich plasma) was “less potent than C-232A and prostratin” and the “platelet aggregation at concentrations below 10 μM” value (platelet-rich plasma; 20-minute stimulation) was “little or no aggregation”. For the same molecule, the “HIV RNA Fold over DMSO Geo.mean” value ([2]; 1.1 μM (Fig 10C)) was 9.2 fold and 9 fold and the EC50 ([2]; 72 h, read-out: HIV RNA EC50) was 296 nM.
